{"source": "patent US20090105346A1", "about": "“Novel crystalline forms of armodafinil and preparation thereof” (priority 2007, published 2009)", "origin": "cited, not measured here", "conditions": "S enantiomer of modafinil compared with R enantiomer; Prisinzano et al., Tetrahedron: Asymmetry (2004)", "data": [{"smiles": "NC(=O)C[S+]([O-])C(c1ccccc1)c1ccccc1", "note": "(single isomer, unassigned) [S enantiomer]", "values": [{"measurement": "elimination from the body relative to the R enantiomer", "result": "three times faster"}]}]}
